Among the data in PubChem BioAssay AID463204 (Broad Institute, 2010) are AC50 values, retold here.

SMILES strings stand for the structures. Calls of active or inactive are those of the source.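 Rule for the calls: active = AC50 no more than ten times the top concentration tested, that is within one log above it; inconclusive = flat curve fit with activity between 30% and 70%, or invalid poor fit; inactive = AC50 beyond ten times the top tested dose.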

The subject of this experiment is S. cerevisiae Mot1-301 ts growth rescue, BacTiter-Glo ATP luminescence. The experiment can be described thus: growth rescue of Mot1-301 ts yeast, confirmation, SUMOylation pathway inhibitor project, whole organism, S. cerevisiae, Mot1-301 ts mutant, luminescence, dose retest (AID 463204).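 Note: growth at restrictive 38.5 degrees C of Mot1-301 OY566 strain; actives raise luminescence by restoring growth of the ts mutant at high temperature.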

On to `CCOc1cc(S(=O)(=O)NCc2ccc3c(c2)OCO3)c(C)cc1C`, for which the AC50 (as a rule, the concentration at which the activity in the assay is half-maximal) is > 42 µM (inactive).

For the molecule `CC1=C(C(=O)Nc2ccccc2)C(c2ccccc2[N+](=O)[O-])NC(=O)N1` (stereo not given), the AC50 was > 42 µM (inactive).

On to `COCC(C)n1c(C)cc(C(=O)CSc2ccc(NC(C)=O)cc2)c1C` (stereo not given), for which the AC50 was > 42 µM (inactive). The value for `Cc1cc(=O)oc(C)c1C(=O)Nc1ccc(Cl)cn1` was > 42 µM (inactive).

Regarding `CC(NC(=O)c1ccc(Cl)cc1)C(=O)N1CCCCC1` (stereo not given), the AC50 was > 42 µM (inactive). As for `O=S(=O)(c1ccccc1)N1CCN(c2nc3ccccc3s2)CC1`, the AC50 was > 42 µM (inactive). Take `CC(NC(=O)CCc1nnc(-c2ccc(-c3ccccc3)cc2)o1)c1nc2ccccc2[nH]1` (stereo not given): the AC50 is > 42 µM (inactive). Consider `Cc1ccc2c(c1)N(CC(=O)NCC1CCCO1)C(=O)C(C)O2` (stereo not given), for which the AC50 is > 42 µM (inactive).

Regarding `O=C(Nc1cc(F)ccc1F)C1CCCO1` (stereo not given), the AC50 is > 42 µM (inactive). Consider `O=C(c1ccco1)N1CCN(C(=O)C2Cc3ccccc3CN2S(=O)(=O)c2ccc(F)cc2)CC1` (stereo not given), for which the AC50 is > 42 µM (inactive). On to `O=S(=O)(Cc1ccccc1)NCc1ccccn1`, for which the AC50 was > 42 µM (inactive).

As to `O=C(CP(=O)(c1ccccc1)c1ccccc1)N1CCOCC1`, the AC50 is > 42 µM (inactive).

Take `COc1cc2c(cc1OC)CN(C(=O)Cc1c(F)cccc1Cl)CC2`: the AC50 is > 42 µM (inactive). In the case of `O=C(Cn1sc2ccccc2c1=O)NC12CC3CC(CC(C3)C1)C2`, the concentration at half-maximal activity (AC50) was 20.7 µM. Take `Cc1c(=O)n(OCc2ccccn2)c2ccccc2[n+]1[O-]`: the AC50 was > 42 µM (inactive).

Consider `CC(C)CCOCc1nc2sc3c(c2c(=O)[nH]1)CCC(C)C3` (stereo not given), for which the AC50 is > 42 µM (inactive).

Consider `COc1ccc(NC(=O)C2CCCN(C(=O)Nc3cccc(OC)c3)C2)cc1` (stereo not given), for which the AC50 is > 42 µM (inactive). In the case of `CC(C)C(O)(C(=O)NNc1ccccc1)C(C)C` it was > 42 µM (inactive); in that of `NNC(=O)c1[nH]c2ccccc2c1-c1ccccc1`, > 42 µM (inactive); in that of `COc1ccc(C)cc1NC(=S)N1CCN(c2ccccn2)CC1`, > 42 µM (inactive). For `COc1cccc(-n2c(Cc3cc(=O)[nH]c(=O)[nH]3)nnc2SCc2cccnc2)c1`, the AC50 is > 42 µM (inactive). For the molecule `Cc1cc(C)n(CCCNC(=O)CN(C)S(=O)(=O)c2ccc(Cl)cc2)n1`, the AC50 was > 42 µM (inactive). Consider `CC(C)Oc1ccc(CCC(=O)NNC(=O)c2ccccc2C(=O)O)cc1`, for which the AC50 was > 42 µM (inactive). Take `c1ccc2c(c1)OCCOCCOc1ccccc1OCCOCCO2`: the AC50 was > 42 µM (inactive). For `Cn1c(=NC(=O)COc2ccccc2)sc2cc(F)cc(F)c21`, the AC50 is > 42 µM (inactive).

On to `COc1ccc2oc(=O)c(C(=O)NCc3ccco3)cc2c1`, for which the AC50 is > 42 µM (inactive). As for `CCN1CCN(C(=O)c2ccc3nc(-c4ccccc4)c(-c4ccccc4)nc3c2)CC1`, the AC50 is > 42 µM (inactive). For `CCCNC(=O)c1cc2c(C(F)(F)F)nn(C)c2s1`, the AC50 is > 42 µM (inactive). In the case of `O=C(CCSc1ccccc1)NNC(=O)c1ccccc1F` it was > 42 µM (inactive); in that of `Cc1ccccc1NC(=O)c1ccccc1NC(=O)c1ccco1`, > 42 µM (inactive); in that of `CC1CN(C(=O)c2cc([N+](=O)[O-])cc([N+](=O)[O-])c2)CC(C)O1` (stereo not given), > 42 µM (inactive).

For the molecule `CCN(CC)/C(=N\S(=O)(=O)c1ccc(F)cc1)c1ccccc1`, the AC50 was > 21 µM (inactive).

`O=C1C2CCCCN2C(=O)N1CCCCN1CCN(c2ccccc2Oc2ccccc2)CC1` (stereo not given): the AC50 is > 42 µM (inactive). Take `CSc1ccccc1-n1nnnc1SCC(=O)Nc1ccccc1C`: the AC50 was > 42 µM (inactive). With `Cc1ccc2c(c1)C(O)(CC(=O)c1cccnc1)C(=O)N2` (stereo not given), the AC50 is > 42 µM (inactive). With `CCCNC(=O)Cn1sc2nc(C)cc(C)c2c1=O`, the AC50 was > 42 µM (inactive). For `CCN1CCN(CC(=O)Nc2cccc(C)c2C)C(=O)C1=O`, the AC50 is > 42 µM (inactive). `CCc1c(C)c2ccc(OCC(=O)OC(C)C)c(C)c2oc1=O`: the AC50 was > 42 µM (inactive).

Consider `CCCCn1c2c(c(=O)n(C)c1=O)C(c1ccc(OC)cc1)N1CCCCCC1=N2` (stereo not given), for which the AC50 is > 42 µM (inactive). On to `O=C(CSc1cccc2cccnc12)Nc1cc(C(=O)O)cc(C(=O)O)c1`, for which the AC50 was > 42 µM (inactive).

Consider `O=C1CN(C(=O)COC(=O)c2cccc(S(=O)(=O)NCc3ccccc3)c2)c2ccccc2N1`, for which the AC50 is > 42 µM (inactive). With `CCOC(=O)c1cc(C#N)c(Oc2ccccc2OC)nc1-c1ccccc1`, the AC50 is > 42 µM (inactive).

For the molecule `COc1cccc(C2/C(=C(/O)c3ccccc3)C(=O)C(=O)N2Cc2ccco2)c1` (stereo not given), the AC50 is > 42 µM (inactive). As for `Cc1cc(C)nc(-n2nc(C)cc2NC(=O)CNCc2ccccc2)n1`, the AC50 is > 42 µM (inactive). In the case of `Cc1nc2nc[nH]n2c(=O)c1NS(=O)(=O)c1ccc([N+](=O)[O-])cc1`, the AC50 is > 42 µM (inactive).

On to `O=C(NCCCn1ccnc1)Nc1cccc2ccccc12`, for which the AC50 is > 42 µM (inactive). The value for `Cc1ccc(NS(=O)(=O)c2ccc(NC(=O)C3CCCO3)cc2)cc1` (stereo not given) was > 42 µM (inactive); that for `CCOC(=O)C1CCCN(C(=O)/C=C/c2ccc(Cl)cc2)C1` (stereo not given) was > 42 µM (inactive). The value for `O=C(O)c1c(C(=O)O)c(-c2ccc(F)cc2)n2c1CCC2` was > 42 µM (inactive). In the case of `CCC(C)[C@H](NC(=O)OC(C)(C)C)C(=O)NCC1CCC(C(=O)N[C@@H](Cc2ccccc2)C(=O)O)CC1` (stereo not given in full) it was > 42 µM (inactive); in that of `CN(C)C(=O)c1c2c(nc3ccccc13)CCCC2`, > 42 µM (inactive); in that of `CN1C(=O)c2cccc3c(Cl)ccc(c23)C1=O`, > 42 µM (inactive). `CN(C(=O)COc1cc(=O)n(C)c2ccccc12)c1ccc(Cl)cc1`: the AC50 is > 42 µM (inactive). For `O=S(=O)(NCC1CCCN(Cc2ccccc2O)C1)c1cccc2cccnc12` (stereo not given), the AC50 is > 42 µM (inactive). As for `NN1C(=O)NC(c2ccccc2)(c2ccccc2)C1=O`, the AC50 is > 42 µM (inactive). In the case of `Cc1ccc(-c2nc(-c3cccnc3)sc2CC(=O)O)cc1`, the AC50 is > 42 µM (inactive). As to `COc1cc(O)oc1C=Nc1ccc(C(=O)O)cc1`, the AC50 was > 42 µM (inactive). In the case of `Oc1ccc(Br)cc1/C=N/n1c(COc2ccccc2)n[nH]c1=S` it was 14.2 µM. Turning to `Clc1cc(Br)ccc1OCCOCCN1CCOCC1`, the AC50 was > 42 µM (inactive). With `C/C(N)=C(/C#N)C(=O)CSc1nnc(-c2ccccc2)n1C`, the AC50 is > 42 µM (inactive). Regarding `O=C(CSc1ncccc1C(=O)O)NC1CCCCC1`, the AC50 was > 42 µM (inactive). Regarding `Cc1ccc(C)c(NC(=O)COC(=O)c2ccc3c(c2)OCO3)c1`, the AC50 was > 42 µM (inactive).

As to `O=C(Nc1ccc2c(c1)CCCN2C(=O)c1cccs1)c1cccc(F)c1`, the AC50 was > 42 µM (inactive). Take `Cc1ccc(C(=O)NC(Cc2c[nH]c3ccccc23)C(=O)O)o1` (stereo not given): the AC50 is > 42 µM (inactive). For `Cc1nc(CC(=O)N/N=C/c2ccc(OCC(=O)O)cc2)cs1`, the AC50 is > 42 µM (inactive).

As to `Cc1ccc(NC(=S)NNC(=O)c2ccc(N3CCOCC3)c([N+](=O)[O-])c2)cc1C`, the AC50 is > 42 µM (inactive). `Cc1ccc(-c2csc(NC(=O)CSc3nc(C)cs3)n2)cc1`: the AC50 was > 42 µM (inactive). As for `CCCOC(=O)c1ccc(O)c(OC)c1`, the AC50 was > 42 µM (inactive). In the case of `CCOC(=O)C1CCN(C(=O)c2sccc2Cl)CC1` it was > 42 µM (inactive); in that of `CCCCC(=O)N/N=C(\C)CC(=O)Nc1cc(Cl)ccc1OC`, > 42 µM (inactive). Regarding `COC(=O)c1c(C)n(Cc2ccc3c(c2)OCO3)c2ccc(O)cc12`, the AC50 is > 42 µM (inactive). In the case of `Cc1nnc(C)n1/N=C/c1cc2ccccc2nc1Cl`, the AC50 is > 42 µM (inactive). On to `CCOc1ccccc1C(=O)NCc1ccc2c(c1)OCO2`, for which the AC50 was > 42 µM (inactive). In the case of `CC1(C)c2[nH]c3ccccc3c2C[C@H]2C(=O)N(Cc3cccc(F)c3)C(=O)N21` it was > 42 µM (inactive). As for `CC1(OC(=O)CCc2ccccc2)C(=O)C=C2C=C(c3ccc(C#N)cc3)N(CC3CC3)C=C2C1=O` (stereo not given), the AC50 was > 42 µM (inactive). `Cn1c(=O)[nH]c(=O)c2c1nc(Sc1ccccc1)n2CCc1ccccc1`: the AC50 was > 42 µM (inactive). As to `O=C(Cc1ccc(Cl)cc1)NC(=S)Nc1ccccc1N1CCOCC1`, the AC50 is > 42 µM (inactive).

Consider `CCCNCC(O)COc1ccccc1C(=O)CCc1ccccc1` (stereo not given), for which the AC50 is > 42 µM (inactive). Regarding `Cn1c(NCc2ccco2)nc2c1c(=O)n(Cc1ccc(Cl)cc1)c(=O)n2C`, the AC50 is > 42 µM (inactive). In the case of `O=c1c2ccccc2nc(SCc2ccc([N+](=O)[O-])cc2)n1CCCO`, the AC50 was > 42 µM (inactive). Take `CC(C)n1c(CN(C)c2ccccc2)nc2ccccc21`: the AC50 was > 42 µM (inactive). On to `COc1cccc(/C=C/C(=O)OCC(=O)Nc2ccc(Cl)cn2)c1`, for which the AC50 was > 42 µM (inactive). The value for `O=C(CN1c2ccccc2Sc2ccccc21)N/N=C/c1ccc(Cl)cc1Cl` was > 21 µM (inactive); that for `O=C(NNC(=O)c1csc(N2CCOCC2)n1)c1ccc(Cl)nc1` was > 42 µM (inactive). In the case of `COCc1[nH][nH]c(=O)c1C=Nc1ccc(OC(F)(F)F)cc1`, the AC50 was > 42 µM (inactive). `O=C(NCc1cccnc1)Nc1ccccc1`: the AC50 was > 42 µM (inactive). For `COc1cccc(CN2CCN(C(=O)c3cccc4ccccc34)CC2)c1OC`, the AC50 is > 42 µM (inactive).

`CC(=O)Nc1ccc(-c2csc(NC(=O)C3CC(=O)N(c4ccc5c(c4)OCCO5)C3)n2)cc1` (stereo not given): the AC50 is > 42 µM (inactive). With `Cc1cc(C(=O)COc2cccc3cccnc23)c(C)n1C`, the AC50 was > 42 µM (inactive). For `CCOC(=O)C1ON2CCCCC2C1(O)C(F)(F)F` (stereo not given), the AC50 was > 42 µM (inactive).
